Data from ChEMBL document CHEMBL4732213, “Discovery of novel ceramide analogs with favorable pharmacokinetic properties and combination with AKT inhibitor against colon cancer” (Eur J Med Chem, 2021).
Calls of active or inactive are those of the source. The calls are words filed in the database; no cut-off is given here.

Assays:
[1] = tested on: HT-29; assay: Antiproliferative activity against human HT-29 cells measured after 72 hrs by sulforhodamine B assay; type: functional, cell-based; conditions: HT-29, 72 h
[2] = tested on: HT-29; assay: Upregulation of p21 protein expression in human HT29 cells at 10 uM incubated for 24 hrs by Western blotting analysis; type: functional, cell-based
[3] = tested on: HT-29; assay: Induction of apoptosis in human HT29 cells assessed as inhibition of AKT phosphorylation at 10 uM after 48 hrs by Western blotting analysis; type: functional, cell-based
[4] = Toxicity in BALB/c nude mouse xenografted with human HT-29 cells assessed as effect on body weight at 50 mg/kg, po measured every 3 day by electronic caliper method; type: organism-based; conditions: in vivo, 72 h
[5] = tested on: HT-29; assay: Induction of cell cycle arrest in human HT29 cells assessed as accumulation at G0/G1 phase at 10 uM after 24 hrs by PI staining based flow cytometry analysis; type: functional
[6] = tested on: HT-29; assay: Induction of apoptosis in human HT29 cells at 7.5 uM after 48 hrs by Annexin-V-FITC/PI staining based flow cytometric analysis; type: functional, cell-based
[7] = tested on: HT-29; assay: Downregulation of c-Myc protein expression level in human HT29 cells at 10 uM incubated for 24 hrs by Western blotting analysis; type: functional, cell-based
[8] = tested on: HT-29; assay: Antitumor activity against human HT-29 cells xenografted in BALB/c nude mouse assessed as tumor growth inhibition at 50 mg/kg, po Q2D measured every 3 days by electronic caliper method; type: functional; conditions: HT-29, po, 72 h, time 3 day, read-out: TGI
[9] = tested on: HT-29; assay: Down regulation of p-RB expression in human HT29 cells at 10 uM incubated for 24 hrs by Western blotting analysis; type: functional, cell-based
[10] = tested on: HT-29; assay: Induction of ROS generation in human HT29 cells at 10 uM after 16 hrs by flow cytometric analysis; type: functional, cell-based
[11] = Tmax in BALB/c mouse at 50 mg/kg, ip; type: ADME, organism-based; conditions: in vivo
[12] = AUC(0 to t) in BALB/c mouse at 10 mg/kg, iv; type: ADME, organism-based; design: dose 10 mg/kg; conditions: in vivo
[13] = AUC(0 to infinity) in BALB/c mouse at 10 mg/kg, iv; type: ADME, organism-based; design: route intravenous, time infinity, dose 10 mg/kg; conditions: in vivo
[14] = AUC(0 to t) in BALB/c mouse at 50 mg/kg, ip; type: ADME, organism-based; design: dose 50 mg/kg; conditions: in vivo
[15] = Cmax in BALB/c mouse at 50 mg/kg, ip; type: ADME, organism-based; design: route intraperitoneal, dose 50 mg/kg; conditions: in vivo
[16] = Half life in BALB/c mouse at 50 mg/kg, ip; type: ADME, organism-based; conditions: in vivo
[17] = AUC(0 to infinity) in BALB/c mouse at 50 mg/kg, ip; type: ADME, organism-based; design: time infinity, route intraperitoneal, dose 50 mg/kg; conditions: in vivo
[18] = Half life in BALB/c mouse at 10 mg/kg, iv; type: ADME, organism-based; conditions: in vivo

SMILES	IC50 [1]	further results
CCCCCCCCCC(=O)NC(CO)(CO)CCc1ccc(CCCCCCCC)c2ccccc12	> 80 µM	
CCCCCCCCCCCCCC(=O)NC(CO)(CO)CCc1ccc(CCCCCCCC)c2ccccc12	> 80 µM	
COc1ccc(CCC(CO)(CO)NC(C)=O)c2ccccc12	> 80 µM	
NC1(c2ccc(-c3nc4ccn5c(=O)[nH]nc5c4cc3-c3ccccc3)cc2)CCC1 [MK-2206]		Activity [2]: inactive; Activity [3]: Active; Activity [4]: Non-Toxic; Activity [5]: Active; Activity [6]: inactive; Activity [7]: inactive; inhibition in vivo at 50 mg/kg [8]: 30.9%; Activity [9]: inactive; Activity [10]: Active
CCCCCCCCc1ccc(CCC(CO)(CO)NC(=O)CCC)c2ccccc12	26.4 µM	
CCCCCCCCc1ccc(CCC(CO)(CO)NC(=O)C(C)CC)c2ccccc12 (configuration not stated)	25.6 µM	
CCCCc1ccc(COc2ccc(CCC(CO)(CO)NC(C)=O)c3ccccc23)cc1	27.1 µM	
CCCCCCCOc1ccc(CCC(CO)(CO)NC(=O)OCc2ccccc2)c2ccccc12	60.5 µM	
CCCCCCCCc1ccc(CCC(CO)(CO)NC(C)=O)c2ccccc12	36.5 µM	
CCCCCCCCCCCCC/C=C/[C@@H](O)[C@H](CO)NC(C)=O	25.9 µM	Tmax [11]: 0.417 h; AUC(0-t) [12]: 1620 ng·h/mL; AUC(0-inf) [13]: 1630 ng·h/mL; AUC(0-t) [14]: 4060 ng·h/mL; Cmax [15]: 2740 ng/mL; half-life [16]: 3.99 h; AUC(0-inf) [17]: 4090 ng·h/mL; half-life [18]: 5.08 h
CCCCCCCCc1ccc(C(O)CC(CO)(CO)NC(C)=O)c2ccccc12 (configuration not stated)	77.9 µM	
C/C=C/C(=O)NC(CO)(CO)CCc1ccc(OCCCCCCC)c2ccccc12	36.4 µM	
CCCCc1ccc(Oc2ccc(CCC(CO)(CO)NC(C)=O)c3ccccc23)cc1	> 80 µM	
CC(=O)NC(CO)(CO)CCc1ccc(O)c2ccccc12	> 80 µM	

Continued by falling IC50 [1], values first:

IC50 [1]	SMILES	further results
23 µM	CCCCCCCCc1ccc(CCC(CO)(CO)NC(=O)c2ccccc2)c2ccccc12	
22.4 µM	CCCCCCCOc1ccc(CCC(CO)(CO)NC(=O)OCCCC)c2ccccc12	
22 µM	CCCCCCCCc1ccc(CCC(CO)(CO)NC(=O)CCCCCCC)c2ccccc12	
21.9 µM	CCCCCCCOc1ccc(CCC(CO)(CO)NC(=O)CCCCC)c2ccccc12	
21.4 µM	CCCCCCCOc1ccc(CCC(CO)(CO)NC(=O)OC(C)(C)C)c2ccccc12	
20.3 µM	CCCCCCCCc1ccc(CCC(CO)(CO)NC(=O)CCCCC)c2ccccc12	
18.8 µM	CCCCCCCOc1ccc(CCC(CO)(CO)NC(=O)CCCCCCC)c2ccccc12	
